This passage reports IC50 results from patent US8946231B2, “P2X3, receptor antagonists for treatment of pain” (Merck Sharp & Dohme Corp., priority 2009, dated 2015).

This experiment concerns the target T1, human P2X3 (Homo sapiens, UniProt P56373).
T1 construct: expressed in transfected cells
T1 sequence (P56373 1-397): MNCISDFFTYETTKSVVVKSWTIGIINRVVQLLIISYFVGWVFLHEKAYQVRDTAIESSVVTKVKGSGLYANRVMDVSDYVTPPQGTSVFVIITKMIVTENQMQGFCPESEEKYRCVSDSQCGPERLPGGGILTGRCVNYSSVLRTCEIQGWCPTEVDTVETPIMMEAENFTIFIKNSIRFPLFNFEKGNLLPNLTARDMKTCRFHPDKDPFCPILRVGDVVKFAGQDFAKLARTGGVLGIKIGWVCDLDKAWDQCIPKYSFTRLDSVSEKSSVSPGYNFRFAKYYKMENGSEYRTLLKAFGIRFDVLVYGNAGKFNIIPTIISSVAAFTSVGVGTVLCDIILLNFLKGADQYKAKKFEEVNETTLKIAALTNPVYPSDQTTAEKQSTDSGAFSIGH
Briefly: Intracellular Calcium Measurement to Assess Antagonist Affinity (FLIPR, Fluo-4). The following applies: cells expressing human P2X3; agonist α,β-meATP at EC50; antagonist added 10 min before agonist. It is filed as cell-based. From the text: Generation of a Human P2X3 and P2X2/3 Stable Cell Line—Human P2X3 receptor cDNA (Accession number NM_002559) was subcloned as a 5′XhoI and 3′HindIII fragment into the expression vector pcDNA5/FRT (Invitrogen). Human P2X2 receptor cDNA (Accession number NM_174873) was subcloned as a 5′EcoRI and 3′NotI fragment into the expression vector pIRESneo2 (BD Biosciences Clontech). The human P2X3 expression construct was transfected using Lipofectamine 2000 (Invitrogen) into Ftp-in—293 cells (Invitrogen) according to the manufacturer's directions. Cells positive for flp-mediated recombination of […] P2X3 were selected using 150 μg/ml hygromycin. The stable human P2X3 cell line was co-transfected with the human P2X2 expression construct using Lipofectamine 2000 as above and co-transfected cells selected using […] hygromycin and 1 mg/ml G418. The stable P2X3 cell line was propagated in DMEM, 10% FBS, 100 μg/ml hygromycin, and 100 units/ml penicillin and 100 μg/ml streptomycin, and maintained at 37° and 95% humidity. The stable P2X213 cell line was propagated as above with the addition of 500 μg/ml G418.
Intracellular Calcium Measurement to Assess Antagonist Affinity—A fluorescent imaging plate reader (FLIPR; Molecular Devices) was used to monitor intracellular calcium levels using the calcium-chelating dye Fluo-4 (Molecular Probes). The excitation and emission wavelengths used to monitor fluorescence were 488 nm and 530 nm, respectively. Cells expressing either human P2X3 or human P2X2/3 were plated at a density of 20,000 cells/well (20 μl/well) in 384-well black-walled plates approximately 20 hours before beginning the assay. […] During this period fluorescence data is collected at 3 sec intervals followed by 10 sec intervals. […] Following agonist addition fluorescence was measured at 5 sec intervals and analyzed based on the increase in peak relative fluorescence units (RFU) compared to the basal fluorescence. Peak fluorescence was used to determine the inhibitory effect at each concentration of antagonist by the following equation: % Inhibition=100*(1−((RFU(drug)−RFU(control)/(RFU(DMSO only)−RFU(control)))) In vitro Electrophysiological Assay—Cells expressing human P2X3 receptors were grown to a confluence of 65-85% 20 to 32 hours prior to assay. The cells were dissociated with trypsin, centrifuged, and resuspended in bath solution at a cell density of 1×10^6 cells/ml and loaded onto PatchXpress. The bath solution contained 150 mM NaCl, 4 mM KCl, 2 mM CaCl2, 1.2 mM MgCl2, 10 mM HEPES, and 11.1 mM glucose, at pH 7.2. […]
(Calcium flux is commonly read through the fluorescence of an indicator in the cells.)
As to `C[C@@H](NC(=O)c1cn(-c2ccc(F)cn2)nc1-c1ccccc1)c1ccc(C(F)(F)F)[n+]([O-])c1` [Example 1.74, 1-(5-Fluoropyridin-2-yl)-N-{(1R)-1-[1-oxido-6-(trifluoromethyl)pyridin-3-yl]ethyl}-3-phenyl-1H-pyrazole-4-carboxamide], the IC50 (commonly the concentration needed to halve the response being measured) turned out to be 53 nM.

`C[C@@H](NC(=O)c1cn(-c2ccc(F)cn2)nc1-c1cnoc1)c1ccc(C(F)(F)F)[n+]([O-])c1` [Example 1.103]: the IC50 turned out to be 125 nM.

On to `CC(C)Cc1nn(-c2ccc(F)cn2)cc1C(=O)N[C@H](C)c1ccc(C(F)(F)F)[n+]([O-])c1` [Example 1.109], for which the half-maximal inhibitory concentration (IC50) was 34 nM.

As for `Cc1ccc(-c2nc(-c3ccccc3)c(C(=O)N[C@H](C)c3ccc(C(F)(F)F)[n+]([O-])c3)o2)nc1` [Example 2.5], the concentration for half-maximal inhibition (IC50) came to 84 nM.
